Test [1] concerns the target SARS-CoV-2 NSP3 macrodomain (Mac1), P43 crystal form (Severe acute respiratory syndrome coronavirus 2, UniProt P0DTD1). Type of test: binding.
Test [2] concerns the target SARS-CoV-2 NSP3 macrodomain (Mac1) (Severe acute respiratory syndrome coronavirus 2, UniProt P0DTD1). Put plainly: biochemical. It counts as binding. The following applies: for Ki: read-out: SARS CoV-2 macrodomain HTRF assay: Ki; for Ligand efficiency (binding enery per heavy atom): from SARS CoV-2 macrodomain HTRF assay. Background: In TR-FRET formats the signal depends on donor and acceptor labels being close together.

[3] abbreviates: ligand modeling in Mac1 crystal soak.
Where [4] appears, read: Single dose, concentration 200 μM, read-out: Average % competition.
The mark [5] stands for this setting: preliminary screen, compound at 200 μM, mean of 3-4 technical replicates, read-out: % competition in HTRF assay.
Setting [6] is: Single dose, 200 μM, mean of three technical replicates, read-out: Average % competition.
The mark [7] stands for this setting: Single dose, concentration 200 μM, read-out: SARS CoV-2 macrodomain HTRF assay: Average % competition.
The mark [8] stands for this setting: stereoisomer(s) of ligand modeled in Mac1 crystal structure.
[9] abbreviates: dose-response, read-out: SARS CoV-2 macrodomain HTRF assay: IC50.
The mark [10] stands for this setting: ligand modeling in Mac1 crystal structure.
[11] abbreviates: stereoisomer(s) modeled in Mac1 crystal structure.

Molecules are shown by their SMILES. Read-outs that look alike come from different tables or passages of the source. Some results are limits rather than exact numbers.

As for `OCC(Nc1ncnc2[nH]ccc12)c1ccco1` (stereo not drawn) [AVI-3659], in test [1] (crystal soak 10 mM), the “PanDDA run, TFA/DMSO background map: 1-BDC” value is 0.08 and the “PanDDA run, TFA/DMSO background map: Hit” value was “TRUE”. In test [1] (setting [3]), the “Number of isomers bound” value amounted to 1. For the same molecule, the inhibition at 200 µM in test [2] (setting [4]) stood at 55%. In addition, the inhibition at 200 µM in test [2] (setting [5]) is 55%.

In the case of `O=C(O)C(F)(F)F.O[C@H]1CCC[C@@H]1Nc1ncnc2[nH]ccc12` [AVI-3639], in test [1] (crystal soak 10 mM), the “PanDDA run, TFA/DMSO background map: 1-BDC” value is reported as 0.09 and the “PanDDA run, TFA/DMSO background map: Hit” value is “TRUE”. Moreover, the “Number of isomers bound” value in test [1] (setting [3]) is 1. For the same molecule, the inhibition at 200 µM in test [2] (setting [4]) worked out at 74%. For the same molecule, the inhibition at 200 µM in test [2] (setting [5]) is 74%.

For `OCC(CC1CCOC1)Nc1ncnc2[nH]ccc12` (stereo not drawn) [AVI-3665], in test [1] (crystal soak 10 mM), the “PanDDA run, TFA/DMSO background map: 1-BDC” value was determined as 0.15 and the “PanDDA run, TFA/DMSO background map: Hit” value was “TRUE”. Also, the “Number of isomers bound” value in test [1] (setting [3]) is on record as 1. In addition, in test [2] (setting [4]), the inhibition at 200 µM was found to be 11%. In addition, in test [2] (setting [5]), the inhibition at 200 µM is 11%.

With `CC1CC(C(=O)O)CCN1C(=O)c1ccc2c(c1)NC(=O)CO2` (stereo not drawn) [AVI-303], the “Number of isomers bound” value in test [1] (setting [3]) turned out to be 1. Moreover, the inhibition at 200 µM in test [2] (setting [6]) and in test [2] (setting [5]) was < 10% in each case.

As for `OC(c1ccccc1)C1CCCN1c1ncnc2[nH]ccc12` (stereo not drawn) [AVI-3652], in test [1] (crystal soak 10 mM), the “PanDDA run, TFA/DMSO background map: 1-BDC” value is reported as 0.16 and the “PanDDA run, TFA/DMSO background map: Hit” value is listed as “TRUE”. In test [1] (setting [3]), the “Number of isomers bound” value is reported as 1. Further, the inhibition at 200 µM in test [2] (setting [7]) was found to be 35%. For the same molecule, the inhibition at 200 µM in test [2] (setting [5]) is 35%.

In the case of `O=C(O)C1CCCN1S(=O)(=O)c1cccc2nsnc12` (stereo not drawn) [AVI-2], the “Number of isomers bound” value in test [1] (setting [3]) was 1. Further, the inhibition at 200 µM in test [2] (setting [6]) and in test [2] (setting [5]) was 23% in each case.

`Cc1sc2ncnc(Sc3ccccc3C(=O)O)c2c1C` [AVI-317]: the “Number of isomers bound” value in test [1] (setting [3]) was found to be 1. Further, in test [1] (setting [8]), the Isomers modeled result is listed as “achiral,achiral”. Further, in test [2] (Dose-response, SARS CoV-2 macrodomain HTRF assay, read-out: IC50), the IC50 (commonly the concentration at which inhibition is half-maximal) was > 1000 µM.

Consider `OC[C@@H]1C[C@H](O)CN1c1ncnc2[nH]ccc12` [AVI-610], for which the “Number of isomers bound” value in test [1] (setting [3]) was determined as 1. Further, the IC50 in test [2] (setting [9]) is 160 µM. Besides, in test [2] (dose-response), the Ki (as a rule, a measure of affinity in units of concentration, obtained from inhibition or displacement) is 150 µM. In addition, the “Ligand efficiency (binding enery per heavy atom)” value in test [2] was 0.31.

On to `CC1CCN(c2ncnc3[nH]ccc23)C1CO` (stereo not drawn) [AVI-3655], for which, in test [1] (crystal soak 10 mM), the “PanDDA run, TFA/DMSO background map: 1-BDC” value is given as 0.18 and the “PanDDA run, TFA/DMSO background map: Hit” value was “TRUE”. For the same molecule, the “Number of isomers bound” value in test [1] (setting [3]) was 1. The inhibition at 200 µM in test [2] (setting [7]) worked out at 75%. For the same molecule, in test [2] (setting [5]), the inhibition at 200 µM was 75%.

For the molecule `Cc1cc2c(=O)n(CCN3C(=O)c4ccccc4S3(=O)=O)nnc2s1` [AVI-341], the “Number of isomers bound” value in test [1] (setting [3]) was found to be 1. Moreover, the Isomers modeled result in test [1] (setting [8]) is reported as “achiral”. The inhibition at 200 µM in test [2] (setting [6]) and in test [2] (setting [5]) was 11% in each case.

With `OCC(Cc1cncs1)Nc1ncnc2[nH]ccc12` (stereo not drawn) [AVI-3703], the “Number of isomers bound” value in test [1] (setting [3]) worked out at 1. For the same molecule, in test [1] (soak concentration 10 mM), the “PanDDA run, TFA/DMSO background map: 1-BDC” value was determined as 0.1. In addition, the “PanDDA run, TFA/DMSO background map: Hit” value in test [1] (soak concentration 10 mM) is reported as “TRUE”. The inhibition at 200 µM in test [2] (setting [4]) and in test [2] (setting [5]) was 28% in each case.

In the case of `CCC(CO)Nc1ncnc2[nH]ccc12` (stereo not drawn) [AVI-3643], in test [1] (crystal soak 10 mM), the “PanDDA run, TFA/DMSO background map: 1-BDC” value was determined as 0.14 and the “PanDDA run, TFA/DMSO background map: Hit” value is given as “TRUE”. Besides, the “Number of isomers bound” value in test [1] (setting [3]) came out at 1. The inhibition at 200 µM in test [2] (setting [4]) came out at 63%. Besides, in test [2] (setting [5]), the inhibition at 200 µM stood at 63%.

For `C[C@@H](O)[C@H](CO)Nc1ncnc2[nH]ccc12.O=C(O)C(F)(F)F` [AVI-3730], the “Number of isomers bound” value in test [1] (setting [3]) came out at 1. In test [1] (soak concentration 10 mM), the “PanDDA run, TFA/DMSO background map: 1-BDC” value was found to be 0.12 and the “PanDDA run, TFA/DMSO background map: Hit” value is listed as “TRUE”. For the same molecule, the inhibition at 200 µM in test [2] (setting [4]) came to 63%. Moreover, the inhibition at 200 µM in test [2] (setting [5]) was determined as 63%.

As for `Cc1ccc(CC(CO)Nc2ncnc3[nH]ccc23)cc1C` (stereo not drawn) [AVI-3684], the “Number of isomers bound” value in test [1] (setting [3]) is on record as 2. The Isomers modeled result in test [1] (setting [8]) is “R,S”. Moreover, the inhibition at 200 µM in test [2] (setting [4]) and in test [2] (setting [5]) was < 10% throughout.

Turning to `C[C@@H]1CCN(c2ncnc3[nH]ccc23)[C@H](CO)C1` (racemic) [AVI-4064], the “Number of isomers bound” value in test [1] (setting [10]) worked out at 2. In test [1] (setting [11]), the Isomers modeled entry is “RS,SR”. Moreover, the IC50 in test [2] (setting [9]) was found to be 100 µM. For the same molecule, in test [2] (dose-response), the Ki is 93 µM. For the same molecule, the “Ligand efficiency (binding enery per heavy atom)” value in test [2] is on record as 0.31.

As for `OCC1C=CCCN1c1ncnc2[nH]ccc12` (stereo not drawn) [AVI-5998], the “Number of isomers bound” value in test [1] (setting [10]) turned out to be 1. Also, the IC50 in test [2] (setting [9]) was determined as 160 µM. The Ki in test [2] (dose-response) was 150 µM. Further, the “Ligand efficiency (binding enery per heavy atom)” value in test [2] was found to be 0.31.

As for `CC(C)(C)C1CCC(CO)N(c2ncnc3[nH]ccc23)C1` (stereo not drawn) [AVI-3719], in test [1] (setting [3]), the “Number of isomers bound” value is reported as 1. Moreover, the inhibition at 200 µM in test [2] (setting [7]) and in test [2] (setting [5]) was 36% each time.

As for `CN(CC1(O)CCOCC1)c1ncnc2[nH]ccc12` [AVI-4318], the “Number of isomers bound” value in test [1] (setting [10]) was found to be 1. Also, the Isomers modeled entry in test [1] (setting [11]) was “achiral”. Further, in test [2] (setting [9]), the IC50 was found to be 71 µM. Further, the Ki in test [2] (dose-response) amounted to 66 µM. The “Ligand efficiency (binding enery per heavy atom)” value in test [2] worked out at 0.30.

For `OCC(CC1CCCCC1)Nc1ncnc2[nH]ccc12` (stereo not drawn) [AVI-3690], the “Number of isomers bound” value in test [1] (setting [3]) is given as 1. Further, the inhibition at 200 µM in test [2] (setting [4]) was determined as 66%; in test [2] (setting [5]), 68%.

In the case of `CC(C)(O)C1C2CCCCC2CN1c1ncnc2[nH]ccc12` (stereo not drawn) [AVI-4127], the “Number of isomers bound” value in test [1] (setting [10]) is listed as 2. For the same molecule, the Isomers modeled entry in test [1] (setting [11]) is listed as “SSR,SRS”. Further, in test [2] (setting [9]), the IC50 is 130 µM. Further, the Ki in test [2] (dose-response) is 120 µM. In addition, in test [2], the “Ligand efficiency (binding enery per heavy atom)” value is reported as 0.25.

Regarding `OCC(CC1CCC1)Nc1ncnc2[nH]ccc12` (stereo not drawn) [AVI-3641], the “PanDDA run, TFA/DMSO background map: 1-BDC” value in test [1] (crystal soak 10 mM) was 0.11. Besides, the “PanDDA run, TFA/DMSO background map: Hit” value in test [1] (crystal soak 10 mM) is on record as “TRUE”. In addition, the “Number of isomers bound” value in test [1] (setting [3]) is given as 1. For the same molecule, the inhibition at 200 µM in test [2] (setting [4]) and in test [2] (setting [5]) was 32% in each case.

With `OCC(Cc1nccs1)Nc1ncnc2[nH]ccc12` (stereo not drawn) [AVI-3673], the “PanDDA run, TFA/DMSO background map: 1-BDC” value in test [1] (crystal soak 10 mM) amounted to 0.15. Further, the “PanDDA run, TFA/DMSO background map: Hit” value in test [1] (crystal soak 10 mM) is “TRUE”. Also, the “Number of isomers bound” value in test [1] (setting [3]) is recorded as 1. The inhibition at 200 µM in test [2] (setting [4]) and in test [2] (setting [5]) was 38% throughout.

For `Cc1c[nH]c2ncnc(NCC3(O)CCSCC3)c12` [AVI-4195, 4-(((5-methyl-7H-pyrrolo[2,3-d]pyrimidin-4-yl)amino)methyl)tetrahydro-2H-thiopyran-4-ol], in test [1] (setting [10]), the “Number of isomers bound” value is reported as 1. Besides, the Isomers modeled entry in test [1] (setting [11]) is given as “achiral”. Further, in test [2] (setting [9]), the IC50 turned out to be 52 µM. Also, the Ki in test [2] (dose-response) was found to be 48 µM. For the same molecule, in test [2], the “Ligand efficiency (binding enery per heavy atom)” value amounted to 0.31.

Turning to `OCC1CC2(CCOCC2)CN1c1ncnc2[nH]ccc12` (stereo not drawn) [AVI-3707], the “Number of isomers bound” value in test [1] (setting [3]) came to 1. Also, in test [1] (soak concentration 10 mM), the “PanDDA run, TFA/DMSO background map: 1-BDC” value turned out to be 0.15 and the “PanDDA run, TFA/DMSO background map: Hit” value is “TRUE”. Further, the inhibition at 200 µM in test [2] (setting [7]) worked out at 39%. For the same molecule, the inhibition at 200 µM in test [2] (setting [5]) stood at 39%.

`CC1(C)C[C@@H](CO)N(c2ncnc3[nH]ccc23)C1.O=C(O)C(F)(F)F` [AVI-3704]: the “Number of isomers bound” value in test [1] (setting [3]) worked out at 1. Also, the IC50 in test [2] (setting [9]) is 29 µM. Besides, in test [2] (dose-response), the Ki was determined as 27 µM. Besides, the “Ligand efficiency (binding enery per heavy atom)” value in test [2] is given as 0.35.

As for `Cc1c[nH]c2ncnc(NCC3(O)CCC(C)CC3)c12` (stereo not drawn) [AVI-4331], in test [1] (setting [10]), the “Number of isomers bound” value is 1. In addition, the Isomers modeled entry in test [1] (setting [11]) is reported as “rr”. Besides, in test [2] (setting [9]), the IC50 stood at 210 µM. In addition, in test [2], the “Ligand efficiency (binding enery per heavy atom)” value is recorded as 0.26.

The values above are taken from article doi:10.1101/2024.08.25.609621 (bioRxiv, 2024).
